This is an account of results in paper PMC11344480 (ACS infectious diseases, 2021).

One data set addresses NLRP3 inflammasome (Homo sapiens, UniProt Q96P20). The data set is classed as cell-based.
Data set [1] is described as follows: XTT reduction viability assay. The data set is classed as cell-based. The note with it: human. A general note: Tetrazolium assays rely on reduction of a dye to a coloured formazan, in cell work by metabolically active cells.
For data set [2], the system named is C. albicans. Put plainly: Modified MIC50 assay. The data set is classed as cell-based, C. albicans SC5314. The note with it: 24 h.
Another data set deals with C. auris. Put plainly: Modified MIC50 assay. The data set is classed as cell-based. Conditions: Candidozyma auris, 24 h.
The test system of a further data set is C. dubliniensis. As to the kind of experiment: Modified MIC50 assay. It is filed as cell-based, C. dubliniensis CD36. The note with it: Candida dubliniensis, 24 h.
The next data set deals with C. tropicalis. Put plainly: Modified MIC50 assay. It is filed as cell-based, C. tropicalis MYA3404. The note with it: Candida tropicalis, 24 h.
The subject of a further data set is Candida species. The note with it: via targeting of AHAS; cited from earlier work.
The subject of a further data set is C. albicans AHAS. The note with it: cited from earlier work.
The subject of data set [3] is C. albicans. Conditions: mice, prophylactic administration; cited from earlier work.
Data set [4] relates to C. albicans. The note with it: prior work of the laboratory; cited from earlier work.

≈ marks a conversion by molar mass, not a printed value.

Sequence of NLRP3 inflammasome (Q96P20 whole entry): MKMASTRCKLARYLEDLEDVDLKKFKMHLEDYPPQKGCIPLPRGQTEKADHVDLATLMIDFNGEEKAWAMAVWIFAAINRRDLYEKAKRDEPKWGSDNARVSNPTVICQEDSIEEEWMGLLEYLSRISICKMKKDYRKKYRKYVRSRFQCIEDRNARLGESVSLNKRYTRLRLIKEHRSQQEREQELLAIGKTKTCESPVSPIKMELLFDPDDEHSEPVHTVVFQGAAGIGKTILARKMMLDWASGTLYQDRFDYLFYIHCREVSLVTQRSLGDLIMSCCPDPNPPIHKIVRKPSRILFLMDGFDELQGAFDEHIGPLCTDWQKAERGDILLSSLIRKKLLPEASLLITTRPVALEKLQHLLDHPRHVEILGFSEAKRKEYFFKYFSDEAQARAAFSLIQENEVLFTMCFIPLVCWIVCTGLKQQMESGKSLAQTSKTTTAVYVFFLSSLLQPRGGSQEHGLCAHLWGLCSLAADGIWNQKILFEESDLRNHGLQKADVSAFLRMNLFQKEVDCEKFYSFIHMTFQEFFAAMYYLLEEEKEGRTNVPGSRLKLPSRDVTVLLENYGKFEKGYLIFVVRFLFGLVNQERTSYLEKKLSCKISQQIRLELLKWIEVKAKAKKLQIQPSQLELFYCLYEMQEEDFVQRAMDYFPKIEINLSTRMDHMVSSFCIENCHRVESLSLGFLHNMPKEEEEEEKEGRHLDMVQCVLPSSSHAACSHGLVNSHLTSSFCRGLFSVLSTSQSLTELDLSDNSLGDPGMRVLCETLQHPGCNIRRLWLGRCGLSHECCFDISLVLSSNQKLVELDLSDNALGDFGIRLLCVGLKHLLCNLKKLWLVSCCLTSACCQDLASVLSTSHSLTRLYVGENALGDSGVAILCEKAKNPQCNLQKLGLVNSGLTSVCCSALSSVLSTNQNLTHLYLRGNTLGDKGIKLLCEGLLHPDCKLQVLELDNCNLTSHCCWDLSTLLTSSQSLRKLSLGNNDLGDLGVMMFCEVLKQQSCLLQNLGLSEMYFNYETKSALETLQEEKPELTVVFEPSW

In general, IC50 refers to the midpoint of a concentration-inhibition curve. Higher therefore signals lower potency. In general, viability refers to a read-out of living cells in per cent, often relative to untreated cells. As usually defined, the MIC50 is an inhibitory concentration at the 50% level, which refers to growth in some studies and to a panel of isolates in others. A lower MIC50 goes with higher susceptibility. Consider `CCOC(=O)c1ccccc1S(=O)(=O)NC(=O)Nc1nc(Cl)cc(OC)n1` [Compound 13, chlorimuron ethyl], for which the 50% inhibitory concentration (IC50) against NLRP3 inflammasome is above 50 µM. The viability at 5 h, 50 µM in data set [1] came out at 103 ± 7.3%. In addition, the MIC50 against C. albicans [2] (C. albicans, YNB, mean ± SD) came to 0.5 ± 0.2 µM (≈ 0.207 µg/mL); in the data set with C. albicans [2] (Candida albicans) it was 0.5 µM (≈ 0.207 µg/mL); in the data set with C. auris, 0.8 ± 0.3 µM (≈ 0.332 µg/mL); in the data set on C. dubliniensis it was 1.3 ± 0.7 µM (≈ 0.539 µg/mL); against C. tropicalis, 21.1 ± 3 µM (≈ 8.75 µg/mL). Also, the “growth of the Candida species” value in the data set with Candida species is “effective at reducing growth”. The “inhibition of purified C. albicans AHAS protein” value with C. albicans AHAS is recorded as “potent inhibitors”. Besides, in the data set with C. albicans [3], the “fungal burden in the kidney, spleen, liver, and lungs” value is “significantly reduced fungal burden”. Also, in the data set on C. albicans [3], the “protection against disseminated C. albicans infection” value is on record as “provided protection”.

Consider `COc1ccc(Cl)cc1C(=O)NCCc1ccc(S(=O)(=O)NC(=O)NC2CCCCC2)cc1` [glyburide], for which the “preventing fungal growth or filamentation” value with C. albicans [4] is listed as “completely ineffective”.
